Results on seven compounds are retold here after the NIST ThermoML archive (doi:10.1016/j.jct.2005.01.017).

For data set [1] the following is noted: 101 kPa, Liquid.
The nature of data set [2]: xn = mol fraction of the nth substance listed. To be noted: 101 kPa, Liquid, x1 = 1.

Several values for one entry are separate records, joined by “and”; a condition that tells them apart may be missing. Equal values may be shown once. ± gives the expanded uncertainty stated by the source.

As for `Cc1ccc(C)cc1` [1,4-dimethylbenzene], the mass density in data set [1] (293.15 K) came to 861 ± 1.8 kg/m3; in data set [1] (303.15 K), 852.28 ± 1.9 kg/m3; in data set [1] (313.15 K) it was 843.58 ± 1.9 kg/m3; in data set [1] (323.15 K), 834.92 ± 2 kg/m3; in data set [1] (333.15 K), 826.27 ± 2.1 kg/m3; in data set [1] (343.15 K) it was 817.66 ± 2.2 kg/m3. The mass density in data set [1] (353.15 K) is given as 809.07 ± 2.2 kg/m3.

Take `Cc1cccc(C)c1` [1,3-dimethylbenzene]: the mass density in data set [1] (293.15 K) is reported as 864.2 ± 1.9 kg/m3; in data set [1] (303.15 K) it was 855.76 ± 2 kg/m3; in data set [1] (313.15 K) it was 847.11 ± 2.1 kg/m3; in data set [1] (323.15 K) it was 838.27 ± 2.1 kg/m3; in data set [1] (333.15 K) it was 829.22 ± 2.2 kg/m3; in data set [1] (343.15 K) it was 819.97 ± 2.3 kg/m3. Further, in data set [1] (353.15 K), the mass density stood at 810.51 ± 2.3 kg/m3.

Turning to `Cc1ccccc1C` [1,2-dimethylbenzene], the mass density in data set [1] (293.15 K) is reported as 878.6 ± 40 kg/m3; in data set [1] (303.15 K), 872.25 ± 40 kg/m3; in data set [1] (313.15 K) it was 859.67 ± 40 kg/m3; in data set [1] (323.15 K), 840.84 ± 40 kg/m3; in data set [1] (333.15 K), 815.74 ± 40 kg/m3; in data set [1] (343.15 K) it was 784.38 ± 40 kg/m3.

Turning to `Cc1ccccc1C` [1,2-dimethylbenzene] + CC1COC(=O)O1, the mass density in data set [2] (293.15 K) was found to be 878.6 ± 40 kg/m3; in data set [2] (303.15 K), 872.25 ± 40 kg/m3; in data set [2] (313.15 K), 859.67 ± 40 kg/m3; in data set [2] (323.15 K), 840.84 ± 40 kg/m3; in data set [2] (333.15 K) it was 815.74 ± 40 kg/m3; in data set [2] (343.15 K), 784.38 ± 40 kg/m3.

With `CC1COC(=O)O1` (configuration not stated) [4-methyl-1,3-dioxolan-2-one], the mass density in data set [1] (293.15 K) was 1200.25 ± 40 kg/m3; in data set [1] (303.15 K), 1180.55 ± 40 kg/m3 and 1180.56 ± 40 kg/m3; in data set [1] (313.15 K) it was 1161.28 ± 40 kg/m3; in data set [1] (323.15 K), 1142.43 ± 40 kg/m3; in data set [1] (333.15 K), 1123.99 ± 40 kg/m3; in data set [1] (343.15 K), 1105.98 ± 40 kg/m3. For the same compound, in data set [1] (353.15 K), the mass density came out at 1088.38 ± 40 kg/m3.

`Cc1ccc(C)cc1` [1,4-dimethylbenzene] + CC1COC(=O)O1: the mass density in data set [2] (293.15 K) amounted to 861 ± 40 kg/m3; in data set [2] (303.15 K), 852.28 ± 40 kg/m3; in data set [2] (313.15 K), 843.58 ± 40 kg/m3; in data set [2] (323.15 K) it was 834.92 ± 40 kg/m3; in data set [2] (333.15 K), 826.27 ± 40 kg/m3; in data set [2] (343.15 K), 817.66 ± 40 kg/m3. Besides, the mass density in data set [2] (353.15 K) is recorded as 809.07 ± 40 kg/m3.

Consider `Cc1cccc(C)c1` [1,3-dimethylbenzene] + CC1COC(=O)O1, for which the mass density amounted to 864.2 ± 40 kg/m3 in data set [2] (293.15 K); 855.76 ± 40 kg/m3 in data set [2] (303.15 K); 847.11 ± 40 kg/m3 in data set [2] (313.15 K); 838.27 ± 40 kg/m3 in data set [2] (323.15 K); 829.22 ± 40 kg/m3 in data set [2] (333.15 K); 819.97 ± 40 kg/m3 in data set [2] (343.15 K). Besides, in data set [2] (353.15 K), the mass density amounted to 810.51 ± 40 kg/m3.
